Measurements as given in patent publication EP4129319A1, “PORE-FORMING ANTIMICROBIAL PEPTIDES” (priority 2021, dated 2023).
pEC50: −log10 of the molar value. Where two headings read alike, the source gives them in different places. Ends that are not written are not given here.

Tests used:
Calcein leakage assay = type: biochemical; details: for Extent of leakage (in percentage) at increasing peptide-to-lipid ratio (mol/mol) 1:50 / Extent of leakage (in percentage) at increasing peptide-to-lipid ratio (mol/mol) 1:100 / Extent of leakage (in percentage) at increasing peptide-to-lipid ratio (mol/mol) 1:10 / Extent of leakage (in percentage) at increasing peptide-to-lipid ratio (mol/mol) 1:20: calcein leakage, POPC:POPG (1:1 mol/mol) LUVs; for Extent of leakage (in percentage) at increasing peptide-to-lipid ratio (mol/mol) 1:50: peptide-to-lipid ratio 1:50 (mol/mol); for Extent of leakage (in percentage) at increasing peptide-to-lipid ratio (mol/mol) 1:100: peptide-to-lipid ratio 1:100 (mol/mol); for Extent of leakage (in percentage) at increasing peptide-to-lipid ratio (mol/mol) 1:10: peptide-to-lipid ratio 1:10 (mol/mol); for Extent of leakage (in percentage) at increasing peptide-to-lipid ratio (mol/mol) 1:20: peptide-to-lipid ratio 1:20 (mol/mol)
Method: (§1) Chemicals. […] (Prague, Czech Republic), and Caslo ApS (Kongens Lyngby, Denmark). […] The bacterial stock was stored at -80°C.
Calcein leakage assay. Pore-forming activity of the peptides was tested by their ability to leak the self-quenching fluorescent dye calcein entrapped within POPC:POPG (1:1 mol/mol) large unilamellar vesicles (LUVs). After mixing DiD to the lipid mixture (in the ratio 1:500 mol/mol), a thin lipid film was created by evaporating of the chloroform, traces of which were removed by desiccating overnight. The lipid film was then dissolved in calcein buffer, followed by vigorous vortexing. The lipid suspension was subsequently subjected to 10 freeze-thaw cycles. To obtain uniform LUVs, the sample was passed 50 times back and forth through an extruder stacked with 100 nm pore size polycarbonate membrane filter. Afterwards, the untrapped calcein was removed on a HiTrap Desalting Column (with Sephadex G-25 Superfine resin) by washing with PBS buffer. The concentration of the lipid suspension was then adjusted to 0.02 mM. The concentration of the peptide solution was 0.1 mM. The inventors monitored the peptide-induced release of calcein from LUVs by the increase in fluorescence intensity after adding increasing amounts of peptides to the LUVs under constant stirring at 25 °C. The investigated range of peptide/lipid molecular ratio was from 1:100 to 1:10. The excitation and emission wavelengths were set to 495 nm and 520 nm, respectively. Maximum fluorescence intensity was obtained by disrupting all the vesicles in the end by adding 10% Triton X-100. Experiments were performed in triplicates with independently prepared lipid vesicles.

[1] = system: Gram-negative Escherichia coli TOP10 strain; type: cell-based; details: for Antibacterial activity (MIC in µM) E. coli TOP10: broth microdilution assay
Method: as §1
(§2) Broth microdilution assay. Antimicrobial activity of the peptides was investigated against Gram-negative Escherichia coli TOP10 strain and Gram-positive Staphylococcus carnosus CCM 4838T using broth microdilution assay, based on which the inventors determined the bacterial minimum inhibition concentration (MIC). After cross streaking with bacteria, the petri dishes (with MHA) were incubated for 24 h at 37 °C. Overnight grown cultures were then sub-cultured for 4-6 h at 37 °C in test tubes containing MHB. The sub-cultured solutions were subsequently diluted to a standard concentration of 10^6 colony forming units (CFU) per mL. Cell counts were determined by measuring the optical density at 600 nm. In a flat-bottomed 96 well plate, the inventors prepared a dilution series for the peptides and for the reference antibiotic ampicillin from 50 to 0.1 µM concentration, which was then inoculated with bacteria and incubated for 24 h at 37 °C. Growth control wells were free from peptides or ampicillin to show the viability of the bacteria, and sterility control wells were free from bacterial inoculation to verify the sterility of the medium. The bacterial growth was visually evaluated based on the turbidity. MIC was determined as the lowest concentrated well where no visible bacterial growth was observed. To test the bacteriostatic or bacteriocidal activity of the peptides, 50 µl solution from the highest concentrated well (i.e., 50 µM) was transferred to a test tube containing 4 mL sterile MHB and incubated for 24 h at 37 °C under constant stirring. Streaking of the same solution was done on MHA containing petri dishes and incubated for 24 h at 37 °C to confirm the morphology of the colonies grown. Experiments were performed in triplicates.

[2] = system: Gram-positive Staphylococcus carnosus CCM 4838T; type: cell-based; details: for Antibacterial activity (MIC in µM) S. carnosus: CCM 4838; for MIC against S. carnosus: 24 h at 37 °C, dilution series 50 to 0.1 µM; for times higher MIC than that of ampicillin, S. carnosus: ratio to ampicillin
Method: as §1, §2

[3] = system: human red blood cells (HRBCs); type: cell-based; details: for EC50: hemolysis assay, HRBCs, read-out: Toxicity (EC50 in µM) HRBCs
Method: as §1
Hemolysis assay. Hemolytic toxicity of the peptides was evaluated from their ability to lyse the fresh human red blood cells (HRBCs) collected from the University Hospital (Brno, Czech Republic). To obtain the erythrocyte pellets, the blood samples were centrifuged twice at 700×g and subsequently, once at 1000×g, each for 8 min. at 4 °C, which was followed by thorough washing with PBS. Resuspension of the pellets was done in PBS to obtain 0.5% (vol/vol) RBC suspension. In a well plate with 96 V-shaped bottom wells, the peptides were added in a dilution series from 0.1 to 50 µM concentration. Subsequently, HRBC suspension was added in each well. Negative control wells contained only PBS and HRBC suspension without any peptide (i.e., 0% lysis), and positive control wells included 5 µM melittin in the HRBC suspension. After incubation for 1 h at 37 °C, the well plates were centrifuged at 1000×g for 10 min. at 4 °C. Subsequently, the supernatant was collected in a flat-bottomed well plate and the optical density of the released hemoglobin was measured for each well at 415 nm wavelength. The calculated absorbances from the wells were then normalized against the averaged absorbances of the positive and the negative control wells. EC50 value was calculated from the normalized absorbances indicating 50% hemolysis of HRBCs. Experiments were performed in triplicates with three independent blood samples.

[4] = system: human dermal fibroblast (HDF) cell lines; experiment: Neutral red uptake assay (cytotoxicity); type: cell-based
Method: Neutral red uptake assay. To evaluate the cytotoxicity of the peptides against human dermal fibroblast (HDF) cell lines, the inventors purchased the neutral red uptake assay from Essence Line (Praha, Czech Republic). The initial cell culture was sub-cultured in supplemented Dulbecco's Modified Eagle Medium (DMEM) and diluted to a cell density of 1 × 10^5 cells/mL. The diluted culture was then seeded into the wells (1 × 10^4

[5] = PBS buffer
Method: After storing at -20 °C, the peptides were dissolved in phosphate-buffered saline (PBS). […] The pH of all the buffers was adjusted to physiological value 7.4.

[6] = system: Acinetobacter baumanni GSAB 164; type: cell-based; details: ESKAPE panel; strain not given, ampicillin > 16 fits the 16-to-0.03 µM series of Evotec
Method: as §2
(§3) The antimicrobial susceptibility test of the most promising peptide against the recalcitrant ESKAPE pathogens was purchased from Evotec (Macclesfield, UK) for the following strains: Enterococcus faecium ATCC 700221, Staphylococcus aureus NRS 1, Klebsiella pneumoniae ATCC 700603, Acinetobacter baumanni GSAB 164, Pseudomonas aeruginosa ATCC 13437, Escherichia coli ATCC 25922 and Enterobacter aerogenes B207A, and was purchased from Essence Line (Praha, Czech Republic) against the following strains: Enterococcus faecium ATCC 29212, Enterococcus hirae ATCC 10541, Staphylococcus aureus ATCC 6538, ATCC 29213, Methicillin-resistant Staphylococcus aureus (MRSA) CNCTC 7452, Klebsiella pneumoniae ATCC 10031, Acinetobacter baumanni ATCC 19606, Pseudomonas aeruginosa ATCC 15442 and Escherichia coli ATCC 10536 and ATCC 35218. […]

[7] = system: Enterococcus faecium ATCC 700221; type: cell-based; details: ESKAPE panel; strain not given, ampicillin > 16 fits the 16-to-0.03 µM series of Evotec
Method: as §2, §3

[8] = system: Escherichia coli ATCC 25922; type: cell-based; details: strain not given, assigned to the Evotec series
Method: as §2, §3

[9] = system: Klebsiella pneumoniae ATCC 700603; type: cell-based; details: ESKAPE panel; strain not given, ampicillin > 16 fits the 16-to-0.03 µM series of Evotec
Method: as §2, §3

Substance | Extent of leakage (in percentage) at increasing peptide-to-lipid ratio (mol/mol) 1:50 (Calcein leakage assay) | Extent of leakage (in percentage) at increasing peptide-to-lipid ratio (mol/mol) 1:100 (Calcein leakage assay) | Antibacterial activity (MIC in µM) E. coli TOP10 [1] | Antibacterial activity (MIC in µM) S. carnosus [2] | pEC50 [3] | pEC50 [4] | Extent of leakage (in percentage) at increasing peptide-to-lipid ratio (mol/mol) 1:10 (Calcein leakage assay) | Extent of leakage (in percentage) at increasing peptide-to-lipid ratio (mol/mol) 1:20 (Calcein leakage assay) | MIC against S. carnosus [2] | times higher MIC than that of ampicillin, S. carnosus [2] | EC50 [3] | also measured
RRRRLRRILRRLFQFINQLDNQLQDIRQNR-NH2 [RDFA2i+9-NH2] | 101.1 ± 0.8 percentage | 65.8 ± 4.1 percentage | 1.6 µM | 0.8 µM | 6.05 | 4.80 |  |  |  |  |  | pEC50 ([3]; 1 h): 6.05
KKKKLKKILKKLFQFIDQLDNDLQDIKKKK (not fully specified (C-terminus)) [KDFC16+9-NH2, group C peptide, net charge +9 e; 89] | 97.4 ± 9.3 percentage | 78.2 ± 4.5 percentage | 0.8 µM |  |  |  | 99.28 ± 1.2 percentage | 98.3 ± 5.2 percentage | 0.4 µM | 4 | > 50 µM | MIC against E. coli ([1]; 24 h at 37 °C, dilution series 50 to 0.1 µM): 0.8 µM; times lower MIC than the MIC of ampicillin, E. coli ([1]; ratio to ampicillin): 15; EC50 ([4]; HDFs, column stands under the head 'Hemolysis assay', read-out: Toxicity (EC50 in µM) HDFs): 10 µM
KQKKLKKFFNQLIQLINQLFNQLDDFNQNK [KDFB12] | 98.2 ± 0.7 percentage | 79.4 ± 3.7 percentage | 6.3 µM | 6.3 µM | < 4.30 | 4.70 |  | 101.5 ± 0.6 percentage |  |  |  | 
KKKKLKKILKKLFQFINQLDNQLQDIAQNA-NH2 [KDFA2i+7-npNH2] | Aggregated peptides and no leakage | Aggregated peptides and no leakage |  |  |  |  | Aggregated peptides and no leakage | Aggregated peptides and no leakage |  |  |  | aggregation / solubilization problem (in words) [5]: peptide aggregation
KKKKLKKILKKLFQFINQLDNQLQDIKKKK-NH2 [KDFA2i+11-NH2] |  |  | 0.2 µM | 0.2 µM |  |  |  |  |  |  | > 50 µM | MIC against A. baumannii [6]: 1.4 µM; MIC against E. faecium [7]: 1.9 µM; MIC against E. coli (ESKAPE panel) [8]: 1.4 µM; MIC against K. pneumoniae [9]: 3.8 µM
KKKKVKKVVKKVFSFVDSVDSDVSDVKKKK-NH2 [KDFC16+9SV-NH2] |  |  | 25 µM |  | < 4.30 | < 3.82 |  |  | 0.4 µM | 4 |  | calcein / vesicle leakage, pore-forming ability (in words) (Calcein leakage assay; POPC:POPG (1:1) LUVs): did not cause calcein leakage
